The results in this text go back to patent publication US9120787B2, “HIV replication inhibitors” (priority 2011, dated 2015).

In data set [1] the test system is HIV-1Ba-L. In words: Inhibition of virus replication in MAGI-CCR5 cells (β-galactosidase reporter). Format: cell-based. The settings on record: HIV-1Ba-L in MAGI-CCR5 cells; for IC50: Human immunodeficiency virus 1, 48 hours, β-galactosidase reporter expression, read-out: IC50. As for the experimental part:
(§1) The anti-viral activity of dihydropyrimidines was shown by inhibition of virus replication in MAGI-CCR5 cells. MAGI-CCR5 cells are derived from HeLa-CD4-LTR-β-galactosidase cells. The cells have been engineered to express high levels of CD4 and CCR5 and contain one copy of the HIV-1 LTR promoter driving expression of the β-galactosidase gene upon HIV-1 Tat transactivation. On the day preceding the assay, the cells were plated at 1.0×10^4 cells per well and maintained at 37° C. and 5% CO2 in a humidified incubator. Total cell count and viability was visually assessed using a hemacytometer and trypan blue exclusion.
Compounds were evaluated at six concentrations (triplicate wells/concentration). On the day of assay setup, compound dilutions were prepared at two-times (2×) the final concentrations. Media was decanted and wells were replenished with 50 μl of 2× compounds, followed by the addition of 50 μl of diluted virus. Identical uninfected assays were prepared for parallel cytotoxicity testing.
Evaluation of Dihydropyrimidines vs. HIV-1Ba-L in MAGI-CCR5 Cells

The test system of data set [2] is HIV-1Ba-L. In words: HIV-1Ba-L replication in PBMCs (supernatant RT end-point). The settings on record: for TI (TC50/IC50): HIV-1Ba-L in PBMCs; for IC50: Human immunodeficiency virus 1, PBMC, 168 h. The procedure: Evaluation of Dihydropyrimidines vs. HIV-1Ba-L in Peripheral Blood Mononuclear Cells (PBMCs)
Cultures of pooled phytohemagglutinin stimulated peripheral blood mononuclear cells (PBMC) were seeded into a 96-well plate at plating density of 5×10^4 cells/well. Compounds were serially diluted into media in ½-log increments using a high test of […] and […] of each concentration (nine total concentrations). Cells were infected with HIV strains HIV-1Ba-L and NL4-3 at an MOI=0.1. The PBMCs were cultured for seven days in an humidified incubator maintained at 37° C., 5% CO2 atmosphere. At the assay end-point, the supernatant was collected and analyzed for reverse transcriptase activity. For the RT assay, tritiated thymidine triphosphate (3H-TTP, 80 Ci/mmol) was diluted 1:1 dH2O:Ethanol at 1 mCi/ml. Poly rA:oligo dT template:primer was prepared as a stock solution by combining 150 μl poly rA (20 mg/ml) with 0.5 mL oligo dT (20 units/ml) and 5.35 ml sterile dH2O followed by aliquoting (1.0 ml) and storage at −20° C. The RT reaction buffer contained of 125 ml 1.0 M EGTA, 125 ml dH2O, 125 ml 20% Triton X100, 50 ml 1.0 M Tris (pH 7.4), 50 ml 1.0 M DTT, and 40 ml 1.0 M MgCl2. The final reaction mixture was prepared by combining 1 part 3H-TTP, 4 parts dH2O, 2.5 parts poly rA:oligo dT stock and 2.5 parts reaction buffer. To each well, ten microliters of the reaction mixture and 15 μl of virus containing supernatant were added. The plates were incubated at 37° C. for 60 minutes. Following incubation, the reaction volume was spotted onto DE81 filter-mats, washed 5 times for 5 minutes each in a 5% sodium phosphate buffer or 2×SSC. […] were washed 2 times for 1 minute each in distilled water, 2 times for 1 minute each in 70% ethanol, and then dried. Incorporated radioactivity (counts per minute, CPM) was quantified using standard liquid scintillation techniques.

Data set [3] is described as follows: Cytotoxicity by MTS staining in PBMCs. Conditions: human, peripheral blood mononuclear cells (PBMC), MTS staining, read-out: TC50. Format: cell-based. As for the experimental part:
Cytotoxicity was assessed by MTS staining. At assay end-point, PBMC were stained with the addition of […] of the soluble tetrazolium-based dye MTS to determine cell viability and quantify compound toxicity. The plates were incubated 4 to 6 hrs at 37° C. Following incubation, the activity was assessed by reading absorbance values at 490/650 nm.

Data set [4] in a line: Cytotoxicity by MTS staining in uninfected MAGI-CCR5 cells. In kind it is cell-based. The settings on record: human, read-out: TC50. The procedure:
as §1, with “exclusion. Compounds were evaluated at six concentrations (triplicate wells/concentration). On the day of assay setup, compound dilutions were prepared at two-times (2×) the final concentrations. Media was decanted and wells were replenished with 50 μl of 2× compounds, followed by the addition of 50 μl of diluted virus. Identical uninfected assays were prepared for parallel cytotoxicity testing.” for “exclusion.”

In general, IC50 refers to the midpoint of a concentration-inhibition curve.

Turning to `CC1=C(c2nc(-c3cccc(C#N)c3)cs2)C(c2cccc(O)c2)NC(=O)N1C` (stereo not drawn) [Example 68], the “TI (TC50/IC50)” value in data set [1] and in data set [2] was “D (D < 10.0)” in each case. The IC50 in data set [1] and in data set [2] was 5 to 100 µM in each case. Besides, the CC50 at 7 days in data set [3] lay within 50 to 100 µM. The CC50 at 48 h in data set [4] is not below 100 µM.
Regarding `CC1=C(c2nc(-c3ccc(C#N)cc3)cs2)C(c2ccc(=O)[nH]c2)NC(=O)N1` (stereo not drawn) [Example 18], in data set [1], the “TI (TC50/IC50)” value is given as “D (D < 10.0)” and the IC50 is more than 100 µM. Further, in data set [2], the “TI (TC50/IC50)” value was “D (D < 10.0)” and the half-inhibitory concentration (IC50) was more than 100 µM. Moreover, the CC50 at 7 days in data set [3] was not below 100 µM. For the same molecule, the CC50 at 48 h in data set [4] was not below 100 µM.
As to `CC1=C(c2nc(-c3ccc(C#N)cc3)cs2)C(c2ccncc2F)NC(=O)N1` (stereo not drawn) [Example 30], in data set [1], the “TI (TC50/IC50)” value is “D (D < 10.0)” and the IC50 is more than 100 µM. Also, in data set [2], the “TI (TC50/IC50)” value is listed as “D (D < 10.0)” and the 50% inhibitory concentration (IC50) is more than 100 µM. The CC50 at 7 days in data set [3] was not below 100 µM. The CC50 at 48 h in data set [4] was not below 100 µM.
On to `COc1ccc(C2NC(=O)NC(C)=C2c2nc(-c3ccc(C#N)cc3)cs2)cn1` (stereo not drawn) [Example 25], for which, in data set [1], the “TI (TC50/IC50)” value was “A (A = TI (TC50/IC50) ≧ 100.0)” and the IC50 is less than 1 µM. In data set [2], the “TI (TC50/IC50)” value is reported as “A (A = TI (TC50/IC50) ≧100.0)” and the IC50 was less than 1 µM. Also, the CC50 at 7 days in data set [3] is not below 100 µM. In addition, the CC50 at 48 h in data set [4] is not below 100 µM.
For the molecule `COc1ccc(C2NC(=O)NC(C)=C2c2nc(-c3ccc(C#N)cc3)cs2)cc1` (stereo not drawn) [Example 64], in data set [1], the “TI (TC50/IC50)” value is recorded as “B (B < 100.0-50.0)” and the IC50 is less than 1 µM. For the same molecule, in data set [2], the “TI (TC50/IC50)” value is recorded as “A (A = TI (TC50/IC50) ≧100.0)” and the half-maximal inhibitory concentration (IC50) is less than 1 µM. Besides, in data set [3], the CC50 at 7 days is not below 100 µM. The CC50 at 48 h in data set [4] is less than 50 µM.
Regarding `CC(C)(C)NC(=O)[C@@H]1CN(Cc2cccnc2)CCN1C[C@@H](O)C[C@@H](Cc1ccccc1)C(=O)N[C@H]1c2ccccc2C[C@H]1O` [Indinavir, reference compound], in data set [2], the “TI (TC50/IC50)” value is more than 21.0 and the midpoint of inhibition, the IC50, lay at 0.048 µM. Moreover, the CC50 at 7 days in data set [3] was more than 1 µM.
Take `COc1ccc(-c2csc(C3=C(C)NC(=O)NC3c3cccc(O)c3)n2)cc1` (stereo not drawn) [Example 46]: in data set [1], the “TI (TC50/IC50)” value is “D (D < 10.0)” and the IC50 lay within 5 to 100 µM. Also, the CC50 at 48 h in data set [4] is not below 100 µM.
Turning to `CC1=C(c2nc(-c3ccc(C(F)(F)F)cc3)cs2)C(c2cccc(O)c2)NC(=O)N1` (stereo not drawn) [Example 75], in data set [1], the “TI (TC50/IC50)” value is “D (D < 10.0)” and the IC50 lay within 5 to 100 µM. In addition, the CC50 at 48 h in data set [4] is less than 50 µM.
In the same order, the values of `CC1=C(c2nc(-c3ccc(C#N)cc3)cs2)C(c2nccn2C)NC(=O)N1` (stereo not drawn) [Example 16] are “D (D < 10.0)”, more than 100 µM and not below 100 µM.
In the same order, the values of `CC1=C(c2nc(-c3ccc(F)cc3)cs2)C(Cc2ccc(C)cc2)NC(=O)N1` (stereo not drawn) [Example 95] are “D (D < 10.0)”, more than 100 µM and not below 100 µM.
In the same order, the values of `CC1=C(c2nc(-c3ccc(C#N)cc3)cs2)C(c2cc(F)cc(F)c2)NC(=O)N1` (stereo not drawn) [Example 53] are “C (C < 50.0 to 10.0)”, 1 to 5 µM and not below 100 µM.
For `CC1=C(c2nc(-c3ccc(C#N)cc3)cs2)C(c2ccc([N+](=O)[O-])cc2)NC(=O)N1` (stereo not drawn) [Example 55], in data set [1], the “TI (TC50/IC50)” value was “C (C < 50.0 to 10.0)” and the IC50 was in the range of 5 to 100 µM. Also, the CC50 at 48 h in data set [4] was not below 100 µM.
As to `CC1=C(c2nc(-c3ccc(C#N)cc3)cs2)C(c2ccc(OC(F)(F)F)cc2)NC(=O)N1` (stereo not drawn) [Example 63], in data set [1], the “TI (TC50/IC50)” value was “D (D < 10.0)” and the IC50 lay in the range of 5 to 100 µM. Besides, the CC50 at 48 h in data set [4] was not below 100 µM.
In the case of `COc1ccc(C2NC(=O)NC(C)=C2c2nc(-c3ccc(C#N)cc3C)cs2)cn1` (stereo not drawn) [Example 85], in data set [1], the “TI (TC50/IC50)” value was “B (B < 100.0-50.0)” and the IC50 was less than 1 µM. In addition, the CC50 at 48 h in data set [4] is less than 50 µM.
Consider `CC1=C(c2nc(-c3ccc(C#N)cc3)cs2)C(c2ccc(-c3ccccc3)cc2)NC(=O)N1` (stereo not drawn) [Example 58], for which, in data set [1], the “TI (TC50/IC50)” value is recorded as “C (C < 50.0 to 10.0)” and the IC50 lay within 1 to 5 µM. In addition, the CC50 at 48 h in data set [4] is not below 100 µM.
On to `CC1=C(c2nc(-c3ccc(C#N)cc3)cs2)C(c2cc3ccccc3nc2Cl)NC(=O)N1` (stereo not drawn) [Example 5], for which, in data set [1], the “TI (TC50/IC50)” value was “D (D < 10.0)” and the IC50 is 5 to 100 µM. Moreover, the CC50 at 48 h in data set [4] was not below 100 µM.
The like results for `CC1=C(c2nc(-c3ccc(C#N)cc3C)cs2)C(c2ccc(Br)nc2)NC(=O)N1` (stereo not drawn) [Example 84] were, in that order, “B (B < 100.0-50.0)”, less than 1 µM and less than 50 µM.
For `COc1ccc(C2NC(=O)NC(C)=C2c2nc(-c3ccc(C#N)cc3)cs2)cc1O` (stereo not drawn) [Example 72], in data set [1], the “TI (TC50/IC50)” value was “A (A = TI (TC50/IC50) ≧ 100.0)” and the IC50 is less than 1 µM. The CC50 at 48 h in data set [4] was not below 100 µM.
The like results for `COc1ccc(-c2csc(C3=C(C)NC(=O)NC3c3cccc(C(F)(F)F)c3)n2)cc1` (stereo not drawn) [Example 45] were, in that order, “D (D < 10.0)”, more than 100 µM and not below 100 µM.
Turning to `CC1=C(c2nc(-c3ccc(C#N)cc3)cs2)C(c2ccc(N(C)C)cc2)NC(=O)N1` (stereo not drawn) [Example 54], in data set [1], the “TI (TC50/IC50)” value was “C (C < 50.0 to 10.0)” and the IC50 lay within 5 to 100 µM. Also, in data set [4], the CC50 at 48 h is 50 to 100 µM.
In the same order, the values of `COc1cccc(C2NC(=O)NC(C)=C2c2nc(-c3ccc(C#N)cc3)cs2)c1` (stereo not drawn) [Example 65] are “C (C < 50.0 to 10.0)”, 1 to 5 µM and not below 100 µM.
As for `CC1=C(c2nc(-c3ccc(C#N)cc3)cs2)C(c2ccc(F)c(C#N)c2)NC(=O)N1` (stereo not drawn) [Example 56], in data set [1], the “TI (TC50/IC50)” value is given as “C (C < 50.0 to 10.0)” and the IC50 was in the range of 5 to 100 µM. In data set [4], the CC50 at 48 h is not below 100 µM.
The like results for `CC1=C(c2nc(-c3ccc(C#N)cc3)cs2)C(Cc2ccccc2)NC(=O)N1` (stereo not drawn) [Example 88] were, in that order, “C (C < 50.0 to 10.0)”, 1 to 5 µM and not below 100 µM.
The like results for `CC1=C(c2nc(-c3ccc(C#N)cc3)cs2)C(c2ccc(F)c([N+](=O)[O-])c2)NC(=O)N1` (stereo not drawn) [Example 60] were, in that order, “C (C < 50.0 to 10.0)”, 5 to 100 µM and not below 100 µM.
The like results for `CC1=C(c2nc(-c3ccc(C#N)cc3)cs2)C(c2cc3ccccc3s2)NC(=O)N1` (stereo not drawn) [Example 12] were, in that order, “C (C < 50.0 to 10.0)”, 1 to 5 µM and not below 100 µM.
Consider `CC1=C(c2nc(-c3ccc(C#N)cc3)cs2)C(c2cc(C(F)(F)F)cc(C(F)(F)F)c2)NC(=O)N1` (stereo not drawn) [Example 77], for which, in data set [1], the “TI (TC50/IC50)” value is on record as “D (D < 10.0)” and the IC50 was more than 100 µM. For the same molecule, in data set [4], the CC50 at 48 h was not below 100 µM.
